One test concerns P. berghei. Kind of test: P. berghei luciferase and blood parasitemia model of causal prophylaxis. It counts as in vivo. As to conditions: for Mice survived: 31 days, n = 5. The procedure:
Efficacy studies in the P. berghei mouse model of causal prophylaxis were conducted at the Walter Reed Army Institute of Research, Experimental Therapeutics Branch as previously described ([46]).
Luciferase-expressing P. berghei ANKA sporozoites were obtained from laboratory-reared female Anopheles stephens mosquitoes as previously described ([46]). Sporozoites were recovered by the method of Li et al. ([62]) and quantitated using a hemocytometer. Sporozoites isolated from the same batch of mosquitoes were inoculated into mice on the same day to control biological variability in sporozoite preparations. Each animal was inoculated IV in the tail vein with approximately 10,000 sporozoites suspended in 0.1-ml volume on day 0.
Age-matched, 40 young adult (7-week-old) female C57BL/6 albino mice were purchased from Charles River Laboratories (Frederick, MD). On arrival, animals were acclimated for 7 days in quarantine. Mice were housed and maintained at a temperature range of 64° to 79°F, 34 to 68% relative humidity, and a 12-hour light/dark cycle. Food and water were provided ad libitum. Animals were fed a standard rodent maintenance diet. All animal use, care, and handling was conducted under an IACUC-approved animal use protocol in an Association for Assessment and Accreditation for Laboratory Animal Care International (AAALACi)–accredited facility with a Public Health Services Animal Welfare Assurance and in compliance with the Animal Welfare Act and other federal statutes and regulations relating to laboratory animals.
TQ was dissolved at a stock concentration of 1 mg/ml in 25% hydroxy-β-cyclodextrin acidified to pH 5 with acetic acid and diluted in DPBS for final dosing solutions. Polymers for parenteral administration were prepared in DPBS at the final dosing concentrations. All drug concentrations were calculated per the free base molecular weights of TQ. TQ parent compounds were administered intragastrically via an intragastric feeder tube. Vehicle groups (0.1 ml of DPBS) and polymer groups were administered SC in the right flank. Free TQ, vehicle, and polymers were given as a single dose on day −1. In this model, the pSVCTQ doses studied were 5.0, 7.5, or 10 mg/kg TQ equivalent.
Whole-body IVIS imaging of bioluminescence activity from luciferase-expressing P. berghei–infected mice was performed using a PerkinElmer IVIS Spectrum. Mice were evaluated at 24, 48, and 72 hours after sporozoite inoculation to determine liver- and blood-stage malaria infection. Mice received luciferin (150 mg/kg, Gold Biotechnology, St. Louis, MO) intraperitoneally in a maximal volume of 150 μl. Three minutes after luciferin administration, the mice were anesthetized with inhaled isoflurane and positioned ventral side up in the IVIS Spectrum on a 37°C platform. The mice continued to receive isoflurane through nose cone delivery. The camera exposure times used were 1 or 5 min for the 24-, 48-, and 72-hour time points with f-stop = 1, and the large binning setting was chosen. Quantitative analysis of bioluminescence emitted from whole bodies or […] (ROI) were determined by measuring the luminescence signal intensity in photons per second using the ROI settings of the Living Image 3.0 software. The ROI, expressed in total flux of photons, was set to measure the abdominal area at the location of the liver from whole-body imaging ([62]). The data were generally found to fit a normal distribution. Means and SDs of photon measurement were calculated.
On days 5 to 31 after infection, mice were analyzed for blood-stage infections by quantitation of malaria parasites in erythrocytes by flow cytometry. Blood (3 μl) from the mouse tail was collected directly into 0.3 ml of 1% heparinized isotonic buffer (PBS saline). After addition of 1 ml of 0.04% of glutaraldehyde for fixation, the samples were incubated at 4°C for 60 min. Cells were centrifuged at 450g for 5 min. […]

A further test has as its system P. cynomolgi hypnozoites. Kind of test: P. cynomolgi anti-hypnozoite assay in primary NHP hepatocytes (radical cure mode). It counts as cell-based. The conditions noted are these: treatment days 4 to 7 after infection, readout day 8. As to the method: Cryopreserved primary cynomolgus monkey hepatocytes (lot STX) and hepatocyte culture medium (HCM) (InVitroGro CP medium) were obtained from BioIVT Inc. (Baltimore, MD, USA) and thawed following the manufacturer’s recommendations. Hepatocytes were seeded in 384-well collagen-coated plates and used for experiments within 2 days after seeding as previously described ([52]). Infectious sporozoites were obtained from Anopheles dirus mosquitoes infected with P. cynomolgi B strain and were used to infect the plated primary NHP hepatocytes 2 days after seeding ([52], [102]). HCM was changed the day after infection and every other day thereafter until drug treatment. […]
Imaging and image analysis of assay plates were completed using an Operetta CLS high-content imaging system and Harmony 4.9 software (PerkinElmer, Waltham, MA, USA). […] Using similar methodology described previously, parasites were counted with the TRITC channel and were identified by area, mean intensity, maximum intensity, and cell roundness parasites ([50], [99]–[102]). […] Percent inhibition (PI) and toxicity values were calculated relative to in-plate negative controls for parasites and hepatocytes, respectively, using GraphPad Prism software (GraphPad Software Inc., USA, Windows version 9.5.1) using the average of experimental and biological replicates. […]

Entries after “also recorded” stand apart in the source; their conditions may differ.

Broadly, the IC50 is the point on the concentration scale where inhibition reaches its midpoint. Low values mean greater potency, high ones weaker potency.

As to p(GalNAc-MA-co-SVCTQ-MA) [pSVCTQ], the Mice survived with P. berghei (5 mg/kg SC, single dose day −1) is listed as 2/5; in the test with P. berghei (7.5 mg/kg SC, single dose day −1), 4/5; with P. berghei (10 mg/kg SC, single dose day −1), “All mice survived”; in the test with P. berghei (10 mg/kg SC, single dose day −1, listed as SVCTQ polymer) it was 5/5. In the test with P. berghei (5 mg/kg TQ equivalent SC, single dose day −1), the Blood parasitemia suppression result was “partial suppression of parasitemia”. Moreover, the “Causal prophylaxis (complete parasite suppression)” value with P. berghei (10 mg/kg TQ equivalent SC, single dose day −1) was 100%. In addition, the “IVIS signal during days 1 to 3” value with P. berghei (10 mg/kg single dose day −1, pSVCTQ SC, TQ oral) was “completely suppressed”. Moreover, the “Activity compared to oral TQ (based on the TQ equivalent dose)” value in the test with P. berghei (P. berghei prophylactic model, single dose day −1) is reported as “approximately twofold; also recorded: approximately twice”. Also, the IC50 in the test on P. cynomolgi hypnozoites was 25.6 µM.

The record behind these values is article PMC11029812, “Liver-targeted polymeric prodrugs delivered subcutaneously improve tafenoquine therapeutic window for malaria radical cure” (Science Advances, 2024).
